From patent US10336768B2, “Pyrimidine compounds and methods using the same” (Yuma Therapeutics, Inc., priority 2014, dated 2019)
Where “and” joins values, the source holds several entries; their conditions need not be identical. Identical values can stand only once. Like-named read-outs stand apart in the source and are kept apart here. Marks after values point to notes of the source that are not given here.

Columns and labels:
[1] = Mouse liver microsomal stability; format: in vitro ADME; settings: mouse liver microsomes; read-out: microsomal stability T1/2
Method: Metabolic stability of the compounds of the invention was assessed by monitoring their degradation in mouse liver microsomes.

[2] = Mouse pharmacokinetics, brain tissue levels (LC-MS/MS); format: in vivo; settings: for concentration at 0.5 h: 0.50 h; for half-life: read-out: Half life (t1/2) (converted)
Method: Plasma and brain samples were taken pre-dose and at post dose time points of pre-dose, 15 and 30 minutes, 1, 2, and 8 hours. The pre-dose group was represented by 5 animals, whereas the post-dose groups were represented by 3 animals.
Bioanalysis of mouse plasma samples for compound 20 was conducted by protein precipitation and LC-MS/MS with compound 22 as the internal standard. The method was based on a ‘generic assay’ and some method development was conducted to tailor that assay to the particular compound and internal standard. The eventual non-GLP assay was first tested by analyzing a bioanalytical run with spiked mouse plasma samples. The qualification run passed by the run acceptance criteria (see below). Bioanalysis was then conducted of plasma sample extracts and of brain sample homogenate extracts, using a calibration and quality control samples spiked in mouse plasma. The assay is described below.
Evaluation of pharmacokinetic parameters was conducted by calculation from the mean concentration (n=5 pre-dose, n=3 post-dose) at each time point.

[3] = mouse brain tissue, Table 14, footnote: excluding IRN 12 result
[4] = mouse brain tissue, Table 15, footnote: including IRN 12 result
[5] = mouse, brain homogenate, mouse brain homogenate, read-out: Mean Group Concentration, Homogenate
[6] = mouse, brain, mouse brain tissue, read-out: Mean Group Concentration, Tissue
[7] = mouse, brain, mouse brain tissue, Table 14, footnote: excluding IRN 12 result
[8] = mouse, brain, mouse brain tissue, Table 15, footnote: including IRN 12 result

Structure (SMILES): Nc1nc(-c2c(Cl)cc(Cl)c3c2CCO3)c2[nH]ccc2n1 [compound 20, 4-(5,7-Dichloro-2,3-dihydrobenzofuran-4-yl)-5H-pyrrolo[3,2-d]pyrimidin-2-amine]
- half-life [1]: 26 min
- Homogenate concentration, individual animals ([2]; mouse brain homogenate, 15 minutes post dose (B_0.25), 0.00 = below LLOQ 0.988 ng/mL): 0.00 ^a ng/mL and 1250 ng/mL
- Homogenate concentration, individual animals ([2]; mouse brain homogenate, 30 minutes post dose (C_0.5)): 844 ng/mL and 1200 ng/mL
- Homogenate concentration, individual animals ([2]; mouse brain homogenate, 1 hour post dose (D_1)): 859 ng/mL and 789 ng/mL
- Homogenate concentration, individual animals ([2]; mouse brain homogenate, 2 hours post dose (E_2)): 385 ng/mL and 294 ng/mL
- Homogenate concentration, individual animals ([2]; mouse brain homogenate, 8 hours post dose (F_8)): 7.53 ng/mL and 1.83 ng/mL and 1.53 ng/mL
- Mean Group Concentration, Tissue ([2]; mouse brain tissue, 0.25 h, excluding IRN 12 result): ^a excluding IRN 12 result: 15772 ng/g.
- Mean Group Concentration, Tissue ([2]; mouse brain tissue, 0.25 h, incl. IRN 12): 10515 ^a ng/g
- AUC(0-inf) [2, 3]: 22900 ng·h/mL
- Kelimination [2, 3]: 0.769 per hour (h^−1)
- AUC(0-t) ([2]; mouse brain tissue, Table 14, footnote: excluding IRN 12 result, read-out: AUC(0-8 h)): 22900 ng·h/mL
- Tmax ([2]; mouse brain tissue, Table 14, footnote: excluding IRN 12 result, read-out: Tmax): 15 min
- Kelimination [2, 4]: 0.789 per hour (h^−1)
- Tmax [2, 4]: 15 min (h)
- Brain concentration, individual animals ([2]; mouse brain, 15 minutes post dose (B_0.25), 0.00 = below LLOQ): 0.00 ^a ng/g and 10870 ng/g
- Brain concentration, individual animals ([2]; mouse brain, 30 minutes post dose (C_0.5)): 7371 ng/g and 10480 ng/g
- Brain concentration, individual animals ([2]; mouse brain, 1 hour post dose (D_1)): 7486 ng/g and 6846 ng/g
- Brain concentration, individual animals ([2]; mouse brain, 2 hours post dose (E_2)): 3341 ng/g and 2518 ng/g
- Brain concentration, individual animals ([2]; mouse brain, 8 hours post dose (F_8)): 63.0 ng/g and 15.0 ng/g and 12.9 ng/g
- concentration at 0.25 h ([2]; mouse, brain homogenate, mouse brain homogenate, 0.25 h, incl. IRN 12, read-out: Mean Group Concentration, Homogenate): 1180 ng/mL
- concentration at 15 min ([2]; mouse, brain homogenate, mouse brain homogenate, 15 minutes post dose (B_0.25), 0.00 = below LLOQ 0.988 ng/mL, read-out: Homogenate concentration, individual animals): 2300 ng/mL
- concentration at 0.5 h [2, 5]: 1150 ng/mL
- concentration at 30 min ([2]; mouse, brain homogenate, mouse brain homogenate, 30 minutes post dose (C_0.5), read-out: Homogenate concentration, individual animals): 1400 ng/mL
- concentration at 1 h ([2]; mouse, brain homogenate, mouse brain homogenate, 1.00 h, read-out: Mean Group Concentration, Homogenate): 845 ng/mL
- concentration at 1 h ([2]; mouse, brain homogenate, mouse brain homogenate, 1 hour post dose (D_1), read-out: Homogenate concentration, individual animals): 888 ng/mL
- concentration at 2 h ([2]; mouse, brain homogenate, mouse brain homogenate, 2.00 h, read-out: Mean Group Concentration, Homogenate): 363 ng/mL
- concentration at 2 h ([2]; mouse, brain homogenate, mouse brain homogenate, 2 hours post dose (E_2), read-out: Homogenate concentration, individual animals): 410 ng/mL
- concentration at 8 h [2, 5]: 3.63 ng/mL
- concentration at 0.5 h [2, 6]: 9820 ng/g
- concentration at 1 h ([2]; mouse, brain, mouse brain tissue, 1.00 h, read-out: Mean Group Concentration, Tissue): 7280 ng/g
- concentration at 2 h ([2]; mouse, brain, mouse brain tissue, 2.00 h, read-out: Mean Group Concentration, Tissue): 3150 ng/g
- concentration at 8 h [2, 6]: 30 ng/g
- Cmax [2, 7]: 10500 ng/g
- half-life [2, 7]: 54 min
- Cmax [2, 8]: 15800 ng/g
- half-life [2, 8]: 52.8 min
- concentration at 15 min ([2]; mouse, brain, mouse brain, 15 minutes post dose (B_0.25), 0.00 = below LLOQ, read-out: Brain concentration, individual animals): 20700 ng/g
- concentration at 30 min ([2]; mouse, brain, mouse brain, 30 minutes post dose (C_0.5), read-out: Brain concentration, individual animals): 11600 ng/g
- concentration at 1 h ([2]; mouse, brain, mouse brain, 1 hour post dose (D_1), read-out: Brain concentration, individual animals): 7490 ng/g
- concentration at 2 h ([2]; mouse, brain, mouse brain, 2 hours post dose (E_2), read-out: Brain concentration, individual animals): 3600 ng/g
